In patent publication US20100267728A1, “3-SUBSTITUTED-1,2,3-TRIAZIN-4-ONE'S AND 3 SUBSTITUTED 1,3-PYRIMIDINONE'S FOR ENHANCING GLU[…] RESPONSES” (CORTEX PHARMACEUTICALS, INC., priority 2007, published 2010):

Assays:
[1] = tested on: AMPA receptor; assay: In vitro patch clamp electrophysiology assay: glutamate-induced whole-cell current in cultured cortical neurons; assay type: cell-based; conditions: rat cortical neurons, 500 μM glutamate
Experimental: Cortical cells were prepared from day 18-19 embryonic Sprague-Dawley rats and recorded after 3 days in culture. The extracellular solution (ECS) contained (in mM): NaCl (145), KCl (5.4), HEPES (10), MgCl2 (0.8), CaCl2 (1.8), glucose (10), sucrose (30); pH. 7.4. In order to block the voltage-gated sodium currents, 40 nM TTX was added to the recording solution. The intracellular solution contained (in mM): K-gluconate (140), HEPES (20), EGTA (1.1), phosphocreatine (5), MgATP (3), GTP (0.3), MgCl2 (5), and CaCl2 (0.1); pH: 7.2. All test compound and glutamate solutions were made-up in the extracellular solution.
The whole-cell current was measured with patch-clamp amplifier (Axopatch 200B), filtered at 2 kHz, digitized at 5 kHz and recorded on a PC with pClamp 8. The cells were voltage-clamped at −80 mV. Solutions were applied by DAD-12 system. A baseline response for each cell was recorded using a 1 s pulse of 500 μM glutamate dissolved in ECS. Responses to test compound were then determined by application of a 10 s pulse of test compound followed by a 1 s pulse of the same concentration of test compound plus 500 μM glutamate and then 10 s of saline. This pulse sequence was repeated until a stable reading was obtained, or until sufficient data points were measured to allow extrapolation to a calculated maximum change.
The mean value of plateau current between 600 ms to 900 ms after application of glutamate or test compound plus glutamate was calculated and used as the parameter to measure the drug effect. The plateau responses in the presence of varying concentrations of test compound were divided by the baseline response in order to calculate the percentage increase. Compounds are deemed active in this test if, at a test concentration of 3 μM or less, they produce a greater than 100% increase in the value of the steady-state current measured due to application of glutamate alone. The concentration at which the glutamate induced current is increased by 100% is commonly referred to as the EC2x value.

[2] = tested on: AMPA receptor; assay: Rat hippocampal slice assay: field EPSP amplitude in CA1; assay type: cell-based
Experimental: (§1) In another test, excitatory responses (field EPSPs) were measured in hippocampal slices, which were maintained in a recording chamber continuously perfused with artificial cerebrospinal fluid (ACSF). During a 15-30 minute interval, the perfusion medium was switched to one containing various concentrations of the test compounds. Responses collected immediately before and at the end of drug perfusion were superimposed in order to calculate the percent increase in EPSP amplitude.
To obtain data for the activity of invention compounds on synaptic responses, a bipolar nichrome stimulating electrode was positioned in the dendritic layer (stratum radiatum) of the hippocampal subfield CA1 close to the border of subfield CA3. Current pulses (0.1 msec) through the stimulating electrode activate a population of the Schaffer-commissural (SC) fibers, which arise from neurons in the subdivision CA3 and terminate in synapses on the dendrites of CA1 neurons. Activation of these synapses causes them to release the transmitter glutamate. Glutamate binds to post-synaptic AMPA receptors, which then transiently open an associated ion channel and permit a sodium current to enter the postsynaptic cell. This current results in a voltage in the extracellular space (the field EPSP), which is recorded by a high impedance recording electrode positioned in the middle of the stratum radiatum of CA1.
The intensity of the stimulation current was adjusted to produce half-maximal EPSPs (typically about 1.5-2.0 mV). Paired stimulation pulses were given every 40 sec with an interpulse interval of 200 msec, as described further in Example 30.
as §1, with “Hippocampal slices” for “In another test, excitatory responses (field EPSPs) were measured in hippocampal slices, which”, “During” for “During a”, “intervals,” for “interval,”
To conduct these tests, the hippocampus was removed from anesthetized, 2 month old Sprague-Dawley rats and in vitro slices (400 μm thick) were prepared and maintained in an interface chamber at 35° C. using conventional techniques [see, for example, Dunwiddie and Lynch, J. Physiol. 276: 353-367 (1978)]. The chamber was constantly perfused at 0.5 mL/min with ACSF containing (in mM): NaCl 124, KCl 3, KH2PO4 1.25, MgSO4 2.5, CaCl2 3.4, NaHCO3 26, glucose 10 and L-ascorbate 2. A bipolar nichrome stimulating electrode was positioned in the dendritic layer (stratum radiatum) of the hippocampal subfield CA1 close to the border of subfield CA3.
Current pulses (0.1 msec) through the stimulating electrode activate a population of the Schaffer-commissural (SC) fibers, which arise from neurons in the subdivision CA3 and terminate in synapses on the dendrites of CA1 neurons. Activation of these synapses causes them to release the transmitter glutamate. Glutamate binds to the post-synaptic AMPA receptors, which then transiently open an associated ion channel and permit a sodium current to enter the postsynaptic cell. This current results in a voltage in the extracellular space (the field EPSP) which is recorded by a high impedance recording electrode positioned in the middle of the stratum radiatum of CA1. The intensity of the stimulation current was adjusted to produce half-maximal EPSPs (typically about 1.5-2.0 mV). Paired stimulation pulses were given every 40 s with an interpulse interval of 200 msec (see below). The field EPSPs of the second response were digitized and analyzed to determine amplitude. If the responses were stable for 15-30 min (baseline), test compounds were added to the perfusion lines for a period of about 15 min. The perfusion was then changed back to regular ACSF. […]

[3] = tested on: AMPA receptor; assay: In vivo electrophysiology: field EPSP in dentate gyrus of anesthetized animals; design: species or system rat
Experimental: Animals are maintained under anesthesia by phenobarbital administered using a Hamilton syringe pump. Stimulating and recording electrodes are inserted into the perforant path and dentate gyrus of the hippocampus, respectively. Once electrodes are implanted, a stable baseline of evoked responses are elicited using single monophasic pulses (100 μs pulse duration) delivered at 3/min to the stimulating electrode. Field EPSPs are monitored until a stable baseline is achieved (about 20-30 min), after which a solution of test compound in HPCD is injected intraperitoneally and evoked field potentials are recorded. Evoked potentials are recorded for approximately 2 h following drug administration or until the amplitude of the field EPSP returns to baseline. In the latter instance, it is common that an iv administration is also carried out with an appropriate dose of the same test compound.

| SMILES | melting point | further results |
| --- | --- | --- |
| CCC(Cn1cnnn1)n1cnc2cc3c(=O)n(C4CC4)nnc3cc2c1=O (stereo not shown) | 213 to 214 °C |  |
| C[C@H](Cn1cccn1)n1cnc2cc3c(=O)n([C@H](C)Cn4cc(Cl)cn4)cnc3cc2c1=O | 231 to 232 °C |  |
| CC(Cn1cnnn1)n1cnc2cc3c(=O)n(C4CC4)nnc3cc2c1=O (stereo not shown) | 245 to 246 °C |  |
| C#CCn1nnc2cc3c(=O)n(C(C)Cn4cnnn4)cnc3cc2c1=O (stereo not shown) | 218 to 219 °C |  |
| C[C@H](Cn1ncnn1)n1nnc2cc3c(=O)n(C4CC4)nnc3cc2c1=O [Example 1, 3-Cyclopropyl-8-[(1R)-1-methyl-2-(2H-tetrazol-2-yl)ethyl]-3,8-dihydro[1,2,3]triazino[4,5-g][1,2,3]-benzotriazine-4,9-dione] |  | In vitro Patch Clamp Electrophysiology EC2x (concentration at which the glutamate induced current is increased by 100%) [1]: 0.28 μM; % increase in the amplitude of the field EPSP in the CA1 region of rat hippocampal slice ([2]; @ 3 μM): 69% @ 3 μM; % increase in the amplitude of the field EPSP in rat dentate gyrus ([3]; @ 5 mpk i.p.): 37%^3 |
| CC[C@H](Cn1nnc(C)n1)n1cnc2cc3c(=O)n([C@H](C)Cn4ncnn4)nnc3cc2c1=O | 140 to 141 °C |  |
| COCCn1nnc2cc3c(=O)n([C@H](C)Cn4ncnn4)nnc3cc2c1=O [Example 18, 3-(2-Methoxyethyl)-8-[(2R)-1-(2H-tetrazol-2-yl)propan-2-yl]-3,8-dihydrobenzo[1,2-d: 4,5-d′]bis[1,2,3]triazine-4,9-dione] |  | % increase in the amplitude of the field EPSP in the CA1 region of rat hippocampal slice ([2]; @ 10 μM): 35% @ 10 μM; % increase in the amplitude of the field EPSP in rat dentate gyrus ([3]; @ 5 mpk i.p.): 34%^3 |
| CCC(Cn1ncnn1)n1cnc2cc3c(=O)n(C4CC4)nnc3cc2c1=O (stereo not shown) | 160 to 161 °C |  |
| C[C@H](Cn1cnnn1)n1nnc2cc3c(=O)n([C@H](C)Cn4ncnn4)nnc3cc2c1=O | 160 to 161 °C |  |
| C[C@H](Cn1ncnn1)n1nnc2cc3c(=O)n(C)nnc3cc2c1=O [Example 4, 3-Methyl-8-[(2R)-1-(2H-tetrazol-2-yl)propan-2-yl]-3,8-dihydrobenzo[1,2-d:4,5-d′]bis[1,2,3]triazine-4,9-dione] |  | In vitro Patch Clamp Electrophysiology EC2x (concentration at which the glutamate induced current is increased by 100%) [1]: 0.28 μM; % increase in the amplitude of the field EPSP in the CA1 region of rat hippocampal slice ([2]; @ 3 μM): 18% @ 3 μM; % increase in the amplitude of the field EPSP in rat dentate gyrus ([3]; @ 5 mpk i.p.): 46%^3 |
| CCC(Cn1nccn1)n1cnc2cc3c(=O)n(C4CC4)nnc3cc2c1=O (stereo not shown) | 129 to 130 °C |  |
| CC(Cn1cnnn1)n1nnc2cc3c(=O)n(C(C)Cn4ncnn4)nnc3cc2c1=O (stereo not shown) | 204 to 206 °C |  |
| CCC(Cn1ccnn1)n1cnc2cc3c(=O)n(C4CC4)nnc3cc2c1=O (stereo not shown) | 215 to 217 °C |  |
| CC(Cn1cccn1)n1nnc2cc3c(=O)n(C4CC4)nnc3cc2c1=O (stereo not shown) | 178 to 180 °C |  |
| C[C@H](Cn1ncnn1)n1nnc2cc3c(=O)n([C@H](C)Cn4ncnn4)nnc3cc2c1=O [Example 80, 3,8-Bis[(2R)-1-(2H-tetrazol-2-yl)propan-2-yl]-3,8-dihydrobenzo[1,2-d:4,5-d′]bis[1,2,3]triazine-4,9-dione] |  | In vitro Patch Clamp Electrophysiology EC2x (concentration at which the glutamate induced current is increased by 100%) [1]: 0.016 μM; % increase in the amplitude of the field EPSP in the CA1 region of rat hippocampal slice ([2]; @ 3 μM): 65% @ 3 μM; % increase in the amplitude of the field EPSP in rat dentate gyrus ([3]; @ 1 mpk i.p.): 59%^4 |
| C[C@H](Cn1ncnn1)n1nnc2cc3c(=O)n(CC#N)nnc3cc2c1=O [Example 22, {4,9-Dioxo-8-[(2R)-1-(2H-tetrazol-2-yl)propan-2-yl]-8,9-dihydrobenzo[1,2-d:4,5-d′]bis[1,2,3]triazin-3(4H)-yl}acetonitrile] |  | In vitro Patch Clamp Electrophysiology EC2x (concentration at which the glutamate induced current is increased by 100%) [1]: 0.24 μM; % increase in the amplitude of the field EPSP in the CA1 region of rat hippocampal slice ([2]; @ 3 μM): 24% @ 3 μM; % increase in the amplitude of the field EPSP in rat dentate gyrus ([3]; @ 5 mpk i.p.): 42%^3 |
| CC[C@H](Cn1cnnn1)n1cnc2cc3c(=O)n([C@H](C)Cn4ncnn4)nnc3cc2c1=O | 198 to 200 °C |  |
| CC(Cn1ncnn1)n1nnc2cc3c(=O)n(C(C)Cn4ncnn4)nnc3cc2c1=O (stereo not shown) | 223 to 226 °C |  |
| CC[C@H](Cn1cnnn1)n1cnc2cc3c(=O)n([C@H](CC)Cn4cnnn4)nnc3cc2c1=O | 80 to 81 °C |  |
| C#CCn1nnc2cc3c(=O)n(C(C)Cn4ncnn4)cnc3cc2c1=O (stereo not shown) | 222 to 223 °C |  |
| C[C@H](Cn1ncnn1)n1cnc2cc3c(=O)n(C4CC4)nnc3cc2c1=O [Example 53, 3-Cyclopropyl-8-[(2R)-1-(2H-tetrazol-2-yl)propan-2-yl]-3,8-dihydro[1,2,3]triazino[4,5-g]quinazoline-4,9-dione] |  | In vitro Patch Clamp Electrophysiology EC2x (concentration at which the glutamate induced current is increased by 100%) [1]: 0.60 μM; % increase in the amplitude of the field EPSP in the CA1 region of rat hippocampal slice ([2]; @ 10 μM): 55% @ 10 μM; % increase in the amplitude of the field EPSP in rat dentate gyrus ([3]; @ 5 mpk i.p.): 33%^3 |
| CC[C@H](Cn1nnnc1C)n1cnc2cc3c(=O)n([C@H](C)Cn4ncnn4)nnc3cc2c1=O | 238 to 240 °C |  |
| C[C@H](Cn1cncn1)n1nnc2cc3c(=O)n(C4CC4)nnc3cc2c1=O | 195 to 199 °C |  |
